Reference: PMC9847679, “The anti-breast cancer stem cell properties of gold(I)-non-steroidal anti-inflammatory drug complexes” (Chemical Science, 2022)

Assays:
HMLER-shEcad cells = assay: Mammosphere formation assay; format: cell-based, human; conditions: at IC20 value, single cell suspensions, 5 days incubation
Method: media. The final concentration of DMSO in each well was ≤1 %. After 72 h, 20 μl of MTT (4 mg mL-1 in PBS) was added to each well and the plates incubated for an additional 4 h at 37 °C. The media/MTT mixture was eliminated and DMSO (100 μl per well) was added to dissolve the formazan precipitates. The optical density was measured at 550 nm using a 96-well multiscanner autoreader. Absorbance values were normalised to (DMSO-containing) control wells and plotted as concentration of test compound versus % cell viability. IC50 values were interpolated from the resulting dose dependent curves. The reported IC50 values are the average of three independent experiments (n = 18).
Tumorsphere Formation and Viability Assay. […] Mammospheres treated with 1-3, 5-fluorouracil, capecitabine, cisplatin, carboplatin, and salinomycin (at their respective IC20 values, 5 days) were counted and imaged using an inverted microscope. The viability of the mammospheres was determined by addition of a resazurin-based reagent, TOX8 (Sigma). After incubation for 16 h, the fluorescence of the solutions was read at 590 nm (λex = 560 nm). […] Fluorescence values were normalised to DMSO-containing controls and plotted as concentration of test compound versus % mammospheres viability. […]
Cellular Uptake. […] The number of cells was counted at this stage, using a haemocytometer. […] Gold levels are expressed as mass of Au (ng) per million cells. […]

COX-2 = COX-2 expression assay (flow cytometry); format: cell-based, human; conditions: LPS 2.5 μM 24 h pre-treatment; 1 at IC50 value or indomethacin 20 μM, 48 h
Method: COX-2 Expression Assay. HMLER-shEcad cells were seeded in 6-well plates (at a density […]
indomethacin (20 μM) and incubated for a further 48 h. The cells were then harvested by trypsinisation, fixed with 4% paraformaldehyde (at 37 °C for 10 min), permeabilised with ice-cold methanol (for 30 min), and suspended in PBS (200 μL). […]
labelled anti-COX-2 antibody (5 μL) was then added to the cell suspension and incubated in the dark for 1 h. The cells were then washed with PBS (1 mL) and analysed using a FACSCanto II flow cytometer (BD Biosciences) (10,000 events per sample were acquired) at the University of Leicester FACS Facility. The FL1 channel was used to assess COX-2 expression. Cell populations were analysed using the FlowJo software (Tree Star).
COX-2 Inhibition Enzyme Immunoassay (EIA). […]
(ovine) Inhibitor Screening Assay (Cayman Chemicals).” The assay was performed according to the manuf acturer’s instructions using a 96-well plate set up.

In the case of `COc1ccc2c(c1)c(CC(=O)[O][Au][PH](c1ccccc1)(c1ccccc1)c1ccccc1)c(C)n2C(=O)c1ccc(Cl)cc1` [complex 1], the “number and size of mammospheres formed” value (HMLER-shEcad cells) is reported as “greatest inhibitory effect” and the COX-2 expression (COX-2) is reported as “decreased”.
